Test results published in EP0314302A2, “Herbicidal o-carbomethoxy-sulfonylureas” (E.I. DU PONT DE NEMOURS AND COMPANY, priority 1987, dated 1989).

Columns and labels:
[1] = system: Groundsel; assay: Test 7 postemergence; format: in vivo, Senecio spp; conditions: scale 0-100
Procedure: (§1) Individual 11.4-cm plastic pots filled with planting medium were seeded with rape, wild radish (Raphanus raphanistruna). tansy mustard (Descurainia pinnata), ball mustard (Neslia paniculata), black mustard (Brassica nigra), yellow mustard, brown mustard, lentils, safflower, flax, sunflower, peanut, vetch, alfalfa, field bean, pea, violet (Viola spp), Kochia (Kochia spp), Russian thistle (Salsola spp), Matricaria spp, groundsel (Senecio spp), shepherdspurse (Capsella bursa-pastoris), nightshade (Solanum spp), sowthistle (Sonchus spp), sugar beet, wheat, "Bonanza" barley and "Morex" barley, Kentucky bluegrass (Poa pratensis), red clover (Trifolium pratense), dandelion (Taraxacum spp) and buckhorn plantain (Plantago lanceolata).
(§2) Plants were treated postemergence with the compound formulated with a non-phytotoxic carrier. Plants were visually rated 18 days after treatment (DAT). Response ratings were based on the scale of 0 to 100 where 0 = no effect, 20 = minimal injury and 100 = complete control.

[2] = system: Citrus; assay: Test 11 citrus pots, preemergence to the weeds; format: in vivo; conditions: Preemergence 32 g/ha; 0.25% X-77 surfactant; scale 0-100
Procedure: (§3) Budded citrus seedlings were planted in 30-liter plastic pots which were also seeded with sandbur, guineagrass, narrowleaf panicum, common ragweed, yellow nutsedge, purple nutsedge and bindweed. Compound I was applied preemergence and postemergence to the weeds. Treatments were sprayed to simulate the trunk-to-trunk herbicide application method used in some citrus groves. The compound was also applied postemergence to weeds grown in windowsill flats. The flats were filled with planting medium and seeded with morningglory (Ipomoea spp.). purple nutsedge (Cyperus rotundus), pigweed (Amaranthus spp.), bindweed (Convolvulus spp.), narrowleaf panicum (Panicum maximum), common ragweed (Ambrosia artemisiifolia), sandbur (Cenchrus echinatus), itchgrass (Rottboellia exaltata), johnsongrass (Sorghum halepense), guineagrass (Panicum maximum), smooth crabgrass (Digitaria ischaemum), broadleaf signalgrass (Brachiaria platyphylla), bermudagrass (Cynodon dactylon), goosegrass (Eleusine indica), large crabgrass (Digitaria sanguinalis) and yellow nutsedge (Cyperus esculentus).
(§4) The compound was formulated and sprayed with 0.25% X-77 surfactant in water. Plants were visually rated 21 and 29 days after treatment and compared with appropriate controls. Injury ratings were based on the scale of 0 to 100, where 0 indicates no effect, 20 indicates minimum effect and 100 indicates complete control. […]

[3] = system: Mikanis cordata; assay: Test 9 postemergence; format: in vivo, Mikania cordata; conditions: scale 0-100
Procedure: (§5) Plastic windowsill pots containing planting medium were seeded with bahiagrass, bindweed (Convolvulus spp), guinea grass (Panicum maximum), large crabgrass (Digitaria sanguinalis) and pigweed (Amaranthus spp). Individual 15-cm plastic pots contained sandbur (Cenchrus echinatus), Mikania cordata, Boston fern (Nephrolepis exalata), quackgrass (Agropyron repens), elephantgrass (Pennisetum purpureum) and sowthistle (Sonchus spp) plants.
(§6) Plants were treated postemergence with Compound I formulated in a non-phytotoxic solvent. Plants were visually rated 22 days after treatment (DAT). Injury and weed control ratings were based on the scale of 0 to 100 where 0 = no effect, 20 = minimal control and 100 = complete control.

[4] = system: Ball mustard; assay: Test 7 postemergence; format: in vivo, Neslia paniculata; conditions: scale 0-100
Procedure: as §1, §2

[5] = system: Large Crabgrass; assay: Test 9 postemergence; format: in vivo, Digitaria sanguinalis; conditions: 16 g/ha, scale 0-100
Procedure: as §5, §6

[6] = system: Sowthistle; assay: Test 7 postemergence; format: in vivo, Sonchus spp; conditions: scale 0-100
Procedure: as §1, §2

[7] = system: Narrowleaf panicum; assay: Test 11 citrus pots, preemergence to the weeds; format: in vivo, Panicum maximum; conditions: Preemergence 32 g/ha; 0.25% X-77 surfactant; scale 0-100
Procedure: as §3, §4

[8] = system: Guineagrass; assay: Test 11 citrus pots, preemergence to the weeds; format: in vivo, Panicum maximum; conditions: Preemergence 32 g/ha; 0.25% X-77 surfactant; scale 0-100
Procedure: as §3, §4

[9] = system: Viola; assay: Test 7 postemergence; format: in vivo, Viola spp; conditions: scale 0-100
Procedure: as §1, §2

[10] = system: Wild radish; assay: Test 7 postemergence; format: in vivo, Raphanus raphanistruna; conditions: scale 0-100
Procedure: as §1, §2

[11] = system: Narrowleaf panicum; assay: Test 5 sugarcane injury and weed control, postemergence; format: in vivo, Panicum maximum; conditions: scale 0-100
Procedure: Sugarcane (Saccharum spp.) cuttings which had been pre-sprouted were planted in 15-cm plastic pots. Narrowleaf panicum (Panicum maximum), large crabgrass (Digitaria sanguinalis), guineagrass (P. maximum) and itchgrass (Rottboellia exaltata) were seeded in individual 15-cm plastic pots.
The pots were treated postemergence when the plants had 3 to 4 leaves with 2 to 3 tillers with Compound I formulated in a non-phytotoxic carrier made up of acetone-humectant-water-surfactant (22:1:1:0.05 v/v). The degree of crop injury and weed control was visually rated 27 days after treatment (DAT). Plant injury ratings are based on the scale of 0 to 100 where 0 = no effect, 20 = minimal injury and 100 = complete control.

[12] = system: Quackgrass; assay: Test 9 postemergence; format: in vivo, Agropyron repens; conditions: scale 0-100
Procedure: as §5, §6

[13] = system: Green foxtail; assay: Test 10 postemergence safety to crops and weed control; format: in vivo, Setaria viridis; conditions: 16 g/ha, scale 0-100
Procedure: The object of these tests was to evaluate the compound of this invention for postemergence safety to crops and weed control. Seedling and budded Macedine grapes were grown in 11.4-cm pots. Flax, green foxtail (Setaria viridis), "Morex" barley, wild oats (Avena fatua), "Era" wheat, annual ryegrass (Lolium multiflorum), wild radish (Raphanus raphanistrum), rape, sunflower, chickweed (Stellaria media) and wild buckwheat (Polygonum convolvulus) were seeded in windowsill pots.
The plants were sprayed postemergence with Compound I in a non-phytotoxic solvent. Plants were visually rated 15 and 27 days after treatment (DAT). Injury and weed control ratings were based on the scale of 0 to 100 where 0 = no effect, 20 minimal control and 100 = complete control.

[14] = system: Yellow nutsedge; assay: Test 11 windowsill flats, postemergence; format: in vivo, Cyperus esculentus; conditions: Postemergence 32 g/ha, 0.25% X-77 surfactant, scale 0-100
Procedure: as §3, §4

[15] = system: Russian thistle; assay: Test 7 postemergence; format: in vivo, Salsola spp; conditions: scale 0-100
Procedure: as §1, §2

[16] = system: Purple nutsedge; assay: Test 11 windowsill flats, postemergence; format: in vivo, Cyperus rotundus; conditions: Postemergence 32 g/ha, 0.25% X-77 surfactant, scale 0-100
Procedure: as §3, §4

[17] = system: Bindweed; assay: Test 11 citrus pots, preemergence to the weeds; format: in vivo, Convolvulus spp.; conditions: Preemergence 32 g/ha; 0.25% X-77 surfactant; scale 0-100
Procedure: as §3, §4

## COC(=O)c1cccnc1S(=O)(=O)NC(=O)Nc1nc(OC)cc(OC)n1 [Compound I, 2-[[(4,6-dimethoxypyrimidin-2-yl)aminocarbonyl]aminosulfonyl]-3-pyridinecarboxylic acid, methyl ester]
[1]; 16 g/ha
  Plant Injury Rating 18 DAT: 100
[1]; 32 g/ha
  Plant Injury Rating 18 DAT: 100
[2]
  Injury ratings: 0
[3]; 8 g/ha
  Plant Injury Rating 22 DAT: 0
[3]; 16 g/ha
  Plant Injury Rating 22 DAT: 0
[3]; 32 g/ha
  Plant Injury Rating 22 DAT: 30
[4]; 16 g/ha
  Plant Injury Rating 18 DAT: 100
[4]; 32 g/ha
  Plant Injury Rating 18 DAT: 100
[5]
  Plant Injury Rating 22 DAT: 60
[6]; 16 g/ha
  Plant Injury Rating 18 DAT: 100
[6]; 32 g/ha
  Plant Injury Rating 18 DAT: 100
[7]
  Injury ratings: 80
[8]
  Injury ratings: 100
[9]; 16 g/ha
  Plant Injury Rating 18 DAT: 100
[9]; 32 g/ha
  Plant Injury Rating 18 DAT: 100
[10]; 16 g/ha
  Plant Injury Rating 18 DAT: 100
[10]; 32 g/ha
  Plant Injury Rating 18 DAT: 100
[11]; 8 g/ha
  Plant Injury Rating 27 DAT: 70
[11]; 16 g/ha
  Plant Injury Rating 27 DAT: 100
[11]; 32 g/ha
  Plant Injury Rating 27 DAT: 100
[11]; 64 g/ha
  Plant Injury Rating 27 DAT: 100
[12]; 8 g/ha
  Plant Injury Rating 22 DAT: 70
[12]; 16 g/ha
  Plant Injury Rating 22 DAT: 90
[12]; 32 g/ha
  Plant Injury Rating 22 DAT: 100
[13]
  Plant Injury Rating 15 DAT: 100
[14]
  Injury ratings: 80
[15]; 16 g/ha
  Plant Injury Rating 18 DAT: 100
[15]; 32 g/ha
  Plant Injury Rating 18 DAT: 100
[16]
  Injury ratings: 100
[17]
  Injury ratings: 90
